Data on 23 compounds can be found in patent publication US11110082B2, “Tyrosine kinase inhibitors” (Rigel Pharmaceuticals, Inc., priority 2016, dated 2021).

pEC50: −log10 of the molar value.

This assay concerns the target T1, MerTK (Homo sapiens, UniProt Q12866).
T1 construct: Seed HUVECs (10K cells/well) in EBM-2 complete media; host or cells: HUVEC (primary human umbilical vein endothelial cells)
T1 sequence (Q12866 21-999): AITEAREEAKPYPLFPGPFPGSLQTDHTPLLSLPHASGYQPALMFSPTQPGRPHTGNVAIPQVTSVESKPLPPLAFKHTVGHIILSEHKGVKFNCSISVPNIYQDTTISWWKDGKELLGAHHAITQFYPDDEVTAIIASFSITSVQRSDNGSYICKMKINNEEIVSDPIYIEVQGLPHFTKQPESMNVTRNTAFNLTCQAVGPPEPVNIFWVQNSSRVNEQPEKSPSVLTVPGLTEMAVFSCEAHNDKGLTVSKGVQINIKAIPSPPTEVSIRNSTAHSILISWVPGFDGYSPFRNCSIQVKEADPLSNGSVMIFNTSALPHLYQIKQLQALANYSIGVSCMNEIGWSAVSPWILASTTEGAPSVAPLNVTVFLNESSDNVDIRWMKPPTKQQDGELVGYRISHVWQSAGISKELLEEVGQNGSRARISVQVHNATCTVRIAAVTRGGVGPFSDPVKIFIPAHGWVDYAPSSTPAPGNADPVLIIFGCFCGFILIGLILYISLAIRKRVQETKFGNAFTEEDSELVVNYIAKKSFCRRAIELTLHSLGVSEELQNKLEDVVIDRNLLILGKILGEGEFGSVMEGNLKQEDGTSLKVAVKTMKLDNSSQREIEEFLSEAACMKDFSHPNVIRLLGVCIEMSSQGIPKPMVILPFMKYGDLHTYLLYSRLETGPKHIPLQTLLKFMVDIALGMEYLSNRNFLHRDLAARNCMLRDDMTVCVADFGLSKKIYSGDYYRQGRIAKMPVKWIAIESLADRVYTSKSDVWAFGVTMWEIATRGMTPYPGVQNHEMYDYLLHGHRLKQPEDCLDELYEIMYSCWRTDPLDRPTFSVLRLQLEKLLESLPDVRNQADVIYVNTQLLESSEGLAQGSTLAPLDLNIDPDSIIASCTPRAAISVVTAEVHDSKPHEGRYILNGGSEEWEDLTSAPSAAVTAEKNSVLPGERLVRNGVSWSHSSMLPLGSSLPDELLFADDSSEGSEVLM
Description: PAKT HTRF-HUVEC assay (pAkt Ser473 HTRF after anti-human MerTK-XL stimulation). The assay is classed as cell-based. As to conditions: HUVEC cells, 1 hour compound, stimulated with anti-human MerTK-XL 1 ug/mL for 10 minutes, read-out: inhibition of MerTK. The procedure, abridged: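 HUVECs starved 3-4 h in basal medium, preincubated with compound 1 h at 37° C, then stimulated 10 min with cross-linked anti-human MerTK antibody (final 1 ug/mL). Lysates read for pAkt (Ser473) by HTRF; EC50 from curve fitting.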
For orientation: Time-resolved FRET reads energy transfer from a long-lived donor to a nearby acceptor.
For the compound `O=c1c2cc(CN3CCN(c4ccncc4)CC3)ccc2c2cnc(NC3CC(F)(F)C3)nc2n1[C@H]1CC[C@H](O)CC1` [Compound 212, trans-3-((3,3-Difluorocyclobutyl)amino)-5-(4-hydroxycyclohexyl)-8-((4-(pyridin-4-yl)piperazin-1-yl)methyl)pyrimido[4,5-c]isoquinolin-6(5H)-one], the pEC50 was 7.20.
In the case of `CCC[C@H](C)Nc1ncc2c3ccc(CN4CCN(C)CC4)cc3c(=O)n([C@H]3CC[C@H](O)CC3)c2n1` [Compound 213, trans-5-(4-hydroxycyclohexyl)-8-((4-methylpiperazin-1-yl)methyl)-3-(((S)-pentan-2-yl)amino)pyrimido[4,5-c]isoquinolin-6(5H)-one], the pEC50 is 7.52.
As for `CCC[C@H](C)Nc1ncc2c3ccc(CN4CCC5(CC4)COC5)cc3c(=O)n([C@H]3CC[C@H](O)CC3)c2n1` [Compound 214, trans-8-((2-oxa-7-azaspiro[3.5]nonan-7-yl)methyl)-5-(4-hydroxycyclohexyl)-3-(((5)-pentan-2-yl)amino)pyrimido[4,5-c]isoquinolin-6(5H)-one], the pEC50 was 7.98.
For the compound `CCC[C@H](C)Nc1ncc2c3ccc(CN4CCN(C(C)(C)C)CC4)cc3c(=O)n([C@H]3CC[C@H](O)CC3)c2n1` [Compound 215], the pEC50 was 8.43.
Consider `O=c1c2cc(CN3CCN(c4ccncn4)CC3)ccc2c2cnc(NCC3CC3)nc2n1[C@H]1CC[C@H](O)CC1` [Compound 216, trans-3-((Cyclopropylmethyl)amino)-5-(4-hydroxycyclohexyl)-8-((4-(pyrimidin-4-yl)piperazin-1-yl)methyl)pyrimido[4,5-c]isoquinolin-6(5H)-one], for which the pEC50 is 7.65.
Consider `O=c1c2cc(CN3CCC(c4ccncc4)CC3)ccc2c2cnc(NCC3CC3)nc2n1[C@H]1CC[C@H](O)CC1` [Compound 217, trans-3-((Cyclopropylmethyl)amino)-5-(4-hydroxycyclohexyl)-8-((4-(pyridin-4-yl)piperidin-1-yl)methyl)pyrimido[4,5-c]isoquinolin-6(5H)-one], for which the pEC50 is 8.39.
For the compound `O=c1c2cc(CC3CCN(c4ccncc4)CC3)ccc2c2cnc(NCC3CC3)nc2n1[C@H]1CC[C@H](O)CC1` [Compound 218, trans-3-((Cyclopropylmethyl)amino)-5-(4-hydroxycyclohexyl)-8-((1-(pyridin-4-yl)piperidin-4-yl)methyl)pyrimido[4,5-c]isoquinolin-6(5H)-one], the pEC50 is 7.62.
The result for `CCC[C@H](C)Nc1ncc2c3ccc(CN4CCN(c5ccncc5)CC4)cc3c(=O)n([C@H]3CC[C@H](O)CC3)c2n1` [Compound 219, trans-5-(4-Hydroxycyclohexyl)-3-(((S)-pentan-2-yl)amino)-8-((4-(pyridin-4-yl)piperazin-1-yl)methyl)pyrimido[4,5-c]isoquinolin-6(5H)-one] reads 7.74.
In the case of `O=c1c2cc(CN3CCN(c4ccncc4)CC3)ccc2c2cnc(NCC3CCC3)nc2n1[C@H]1CC[C@H](O)CC1` [Compound 220, trans-3-((Cyclobutylmethyl)amino)-5-(4-hydroxycyclohexyl)-8-((4-(pyridin-4-yl)piperazin-1-yl)methyl)pyrimido[4,5-c]isoquinolin-6(5H)-one], the pEC50 was 7.95.
On to `CCC(F)(F)CNc1ncc2c3ccc(CN4CCN(c5ccncc5)CC4)cc3c(=O)n([C@H]3CC[C@H](O)CC3)c2n1` [Compound 221, trans-3-((2,2-Difluorobutyl)amino)-5-(4-hydroxycyclohexyl)-8-((4-(pyridin-4-yl)piperazin-1-yl)methyl)pyrimido[4,5-c]isoquinolin-6(5H)-one], for which the pEC50 was 7.06.
For the compound `O=c1c2cc(CN3CCN(c4ccncc4)CC3)ccc2c2cnc(NCCC3CC3)nc2n1[C@H]1CC[C@H](O)CC1` [Compound 222, trans-3-((2-Cyclopropylethyl)amino)-5-(4-hydroxycyclohexyl)-8-((4-(pyridin-4-yl)piperazin-1-yl)methyl)pyrimido[4,5-c]isoquinolin-6(5H)-one], the pEC50 was 7.84.
With `CC(C)CCNc1ncc2c3ccc(CN4CCN(c5ccncc5)CC4)cc3c(=O)n([C@H]3CC[C@H](O)CC3)c2n1` [Compound 223, trans-5-(4-Hydroxycyclohexyl)-3-(isopentylamino)-8-((4-(pyridin-4-yl)piperazin-1-yl)methyl)pyrimido[4,5-c]isoquinolin-6(5H)-one], the pEC50 was 7.84.
The result for `C[C@]1(O)CC[C@H](n2c(=O)c3cc(CN4CCN(c5ccncc5)CC4)ccc3c3cnc(NCC4CC4)nc32)CC1` [Compound 224, trans-3-((Cyclopropylmethyl)amino)-5-(4-hydroxy-4-methylcyclohexyl)-8-((4-(pyridin-4-yl)piperazin-1-yl)methyl)pyrimido[4,5-c]isoquinolin-6(5H)-one] reads 7.55.
With `O=c1c2cc(CN3CCN(c4ccncc4)CC3)ccc2c2cnc(NC3CCC3)nc2n1[C@H]1CC[C@H](O)CC1` [Compound 225, trans-3-(Cyclobutylamino)-5-(4-hydroxycyclohexyl)-8-((4-(pyridin-4-yl)piperazin-1-yl)methyl)pyrimido[4,5-c]isoquinolin-6(5H)-one], the pEC50 is 7.68.
The result for `O=c1c2cc(CN3CCN(c4ccncn4)CC3)ccc2c2cnc(NC3CCC3)nc2n1[C@H]1CC[C@H](O)CC1` [Compound 226, trans-3-(Cyclobutylamino)-5-(4-hydroxycyclohexyl)-8-((4-(pyrimidin-4-yl)piperazin-1-yl)methyl)pyrimido[4,5-c]isoquinolin-6(5H)-one] reads 7.96; that for `O=c1c2cc(CN3CCC(c4ccncc4)CC3)ccc2c2cnc(NC3CCC3)nc2n1[C@H]1CC[C@H](O)CC1` [Compound 227, trans-3-(Cyclobutylamino)-5-(4-hydroxycyclohexyl)-8-((4-(pyridin-4-yl)piperidin-1-yl)methyl)pyrimido[4,5-c]isoquinolin-6(5H)-one], 8.62; that for `O=c1c2cc(CN3CCC(O)(c4ccncc4)CC3)ccc2c2cnc(NCC3CC3)nc2n1[C@H]1CC[C@H](O)CC1` [Compound 228, trans-3-((Cyclopropylmethyl)amino)-8-((4-hydroxy-4-(pyridin-4-yl)piperidin-1-yl)methyl)-5-(4-hydroxycyclohexyl)pyrimido[4,5-c]isoquinolin-6(5H)-one], 7.58.
Then `CCCCNc1ncc2c3ccc(CN4CCN(C)CC4)cc3c(=O)n([C@H]3CCC[C@H](O)CC3)c2n1` [Compound 229, 3-(butylamino)-5-((1S,4S)-4-hydroxycycloheptyl)-8-((4-methylpiperazin-1-yl)methyl)pyrimido[4,5-c]isoquinolin-6(5H)-one], with 7.14; and `CN1CCN(Cc2ccc3c(c2)c(=O)n([C@H]2CCC[C@H](O)CC2)c2nc(NCC4CC4)ncc32)CC1` [Compound 230, 3-((cyclopropylmethyl)amino)-5-((1S,4S)-4-hydroxycycloheptyl)-8-((4-methylpiperazin-1-yl)methyl)pyrimido[4,5-c]isoquinolin-6(5H)-one], with 6.85.
In the case of `CCCCNc1ncc2c3ccc(CN4CCN(C)CC4)cc3c(=O)n([C@H]3CC[C@H](NC(=O)OC(C)(C)C)C3)c2n1` [Compound 231, tert-butyl ((1S,3S)-3-(3-(butylamino)-8-((4-methylpiperazin-1-yl)methyl)-6-oxopyrimido[4,5-c]isoquinolin-5(6H)-yl)cyclopentyl)carbamate], the pEC50 was 5.72.
The result for `CCCCNc1ncc2c3ccc(CN4CCN(C)CC4)cc3c(=O)n([C@H]3CC[C@H](N)C3)c2n1` [Compound 232, 5-((1S,3S)-3-aminocyclopentyl)-3-(butylamino)-8-((4-methylpiperazin-1-yl)methyl)pyrimido[4,5-c]isoquinolin-6(5H)-one] reads 7.37; that for `CCCCNc1ncc2c3ccc(CN4CCN(C)CC4)cc3c(=O)n([C@H]3CC[C@H](NC(C)=O)C3)c2n1` [Compound 233, N-((1S,3S)-3-(3-(butylamino)-8-((4-methylpiperazin-1-yl)methyl)-6-oxopyrimido[4,5-c]isoquinolin-5(6H)-yl)cyclopentyl)acetamide], 6.29; that for `CCCCNc1ncc2c3ccc(CN4CCN(C)CC4)cc3c(=O)n([C@@H]3CC[C@@H](O)C3)c2n1` [Compound 235, 3-(butylamino)-5-((1R,3R)-3-hydroxycyclopentyl)-8-((4-methylpiperazin-1-yl)methyl)pyrimido[4,5-c]isoquinolin-6(5H)-one], 6.58.
